Our source for the melting point values is a melting point compilation (Tetko et al.; mined from patent text by program, amines drawn as free bases though some values may be those of a salt).

In general, melting point refers to the temperature of the solid-liquid transition.

In turn, `Nc1nc(N2CCOCC2)nc2ccccc12` yielded a melting point of 216 to 219 °C.
Compound `CC(CO)Oc1cc(Oc2ccc(S(C)(=O)=O)cc2)cc2cc(C3=NCC(CCO)S3)[nH]c12` (centres undefined) came in with a melting point of 165 to 169 °C.
`COc1ccc(C(O)CN2CCN(c3cccccc3=O)CC2)cc1OC` (centres undefined) yielded a melting point of 122 to 124 °C.
With `CC1(C)CC(=O)c2ccc(C#Cc3cccnc3)nc2C1`, the melting point lay within 108 to 109 °C.
To `CN=C(C)c1cc(Oc2ccc(C(F)(F)F)cc2Cl)ccc1[N+](=O)[O-]` belongs 133 to 137 °C; to `O=C(c1cccs1)c1cnc2[nH]ncc2c1NC1CC1`, 268 to 270 °C; to `O=[N+]([O-])CCc1cccc2ccccc12`, 45 to 46 °C.
To `ClC1=Nc2nc(C3CCCC3)n(Cc3ccccc3)c2C2=N[C@H](Cc3ccccc3)CN12` belongs 124 to 125 °C; to `CCN(c1ccc(C)c2cc(-c3ncc(CCl)s3)[nH]c12)S(=O)(=O)c1cccs1`, 177 to 178 °C.
On to `C=CC12CCc3cc(O)ccc3C1CCC1(C)C(O)CCC12` (centres undefined), for which the melting point is 149 to 151 °C.
To `O=c1ccc(-c2ccc(OC(F)(F)F)cc2)n[nH]1` belongs 178 °C; to `COc1ccc2c(CCC(=O)O)nnc(-c3nccs3)c2c1`, 228 to 229 °C; to `CCN(CC)C(=O)COC(=O)c1ccc(O)cc1`, 148 to 149 °C.
To `CC(=O)C1(O)CCC2C3C=C(C)C4=CC(=O)CCC4(CO)C3CCC21C` (centres undefined) belongs 184 to 186 °C; to `CC(C)Cn1cnc2c1c1ccccc1n1nnnc21`, 208 to 212 °C; to `Nc1ccc(OCc2ccc(F)cc2)cc1F`, 42 to 43 °C.
`Nc1nc2c(sc(=O)n2CC(O)CO)c(=O)[nH]1` (centres undefined): the melting point lay in the range of 248 to 254 °C.
As to `CCCCCCCN(CCc1ccc(OC(C)(C)C(=O)O)cc1)C(=O)Nc1ccc(F)cc1`, the melting point lay within 162 to 164 °C.
`CCOC(=O)c1c(CN(CC)CC)nc2ccc(Cl)cc2c1-c1ccccc1`: the melting point was in the range of 107 to 108 °C.
For the compound `Cc1cc2c(NC(=S)N3Cc4sccc4CC3CO)cccc2cn1` (racemic), the melting point is 145 °C.
In turn, `O=C(CCC(=O)N1Cc2c(cc3ccc4c(c3c2-c2ccc3c(c2)OCO3)OCO4)C1=O)OCc1ccccc1` gave a melting point of 128 to 129 °C.
In turn, `CCN(CC)C(=O)c1nc[nH]n1` showed a melting point of 173 to 174 °C.
To `CNc1nsnc1-c1c(Cl)cccc1Cl` belongs 145 to 146 °C; to `CCC(CC)(CCC#N)C(NC(=O)c1ccc(Cl)cc1)NC(=N[N+](=O)[O-])Nc1cccnc1` (centres undefined), 100 to 110 °C; to `CC(C)(C)OC(=O)N[C@@]1(C(=O)OC(C)(C)C)C[C@@H](F)[C@H]2[C@H](C(=O)OC(C)(C)C)[C@H]21`, 140 to 143 °C.
To `O=C1CN(N=Cc2ncc(-c3ccc(Cl)cc3)o2)C(=O)N1` belongs 290 to 294 °C; to `O=C1c2ccccc2C(=O)c2c(NC(=O)C3CC3)ccc(NC(=O)C3CC3)c21`, over 200 °C; to `CN(C)CC(C)(CSC(=S)N(C)C)[N+](=O)[O-]` (centres undefined), 75.5 to 78 °C.
To `Clc1ccc(CO[C@H]2CO[C@@H](c3ccccc3)OC2)cc1` belongs 116 to 117 °C; to `O=C(C[N+](=O)[O-])c1ncn(Cc2ccccc2)c1[N+](=O)[O-]`, 105 to 107 °C.
For `O=C(NC1CCCc2sccc21)N1CCOCC1` (centres undefined), the melting point lay within 152 to 154 °C.
`CC(C)c1ccc(C2COc3ccc(Br)cc32)cc1` (centres undefined): the melting point was in the range of 90 to 91 °C.
Turning to `CSc1c(CC(C)(C)C(=O)O)n(Cc2ccc(Cl)cc2)c2ccc(C(C)C)cc12`, the melting point lay within 143 to 144 °C.
In the case of `O=c1[nH]c2cc(Br)ccc2c(=O)n1Cc1ccc(I)cc1F`, the melting point fell in the range of 303 to 304 °C.
To `CC(=O)Nc1ncc(-c2cccc3ccccc23)o1` belongs 188 to 190 °C; to `c1ccc(Nc2nsc3ccccc23)nc1`, 247 to 249 °C; to `OC1CSC(Oc2cccc3conc23)C(O)C1O` (centres undefined), 115 °C.
With `COc1cc2cc3c(ccc4cc(Cl)ccc43)nc2cc1OC`, the melting point was in the range of 241 to 243 °C.
As to `CSCC[C@H](NC(=O)C1(CS)Cc2ccccc2C1)C(=O)O`, the melting point was 68 to 69 °C.
`CCN(CC)CCN(CC)C(=O)c1ccccc1Nc1ccnc2c(C(F)(F)F)cccc12`: the melting point lay within 112 to 113 °C.
Compound `CCCCCCCCCCC1(CCCCCCCCCC)c2cc(C=O)ccc2-c2ccc(N(c3ccccc3)c3ccccc3)cc21` displayed a melting point of 77 to 78.5 °C.
`NCCC1CCc2ccc3c(c21)NC(=O)CO3` (centres undefined) displayed a melting point of 128 to 134 °C.
`O=C1CCC(N2Cc3c(OCc4ccc(Cn5ccnc5)cc4)cccc3C2=O)C(=O)N1` (centres undefined) registered a melting point of 248 to 250 °C.
As for `CC(C)(C)OC(=O)N1[C@@H](c2ccccc2)[C@H](C(=O)OC(=O)[C@@H]2OC(C)(C)N(C(=O)OC(C)(C)C)[C@H]2c2ccccc2)OC1(C)C`, the melting point was found to be 46 °C.
On to `CC(=O)NCCNc1cccc(-c2cc(-c3ccc(F)cc3O)nc(NC(=O)c3ccco3)c2C#N)c1`, for which the melting point was in the range of 158 to 160 °C.
To `C#CCNC(=O)c1ccc(C(=O)OC)cc1` belongs 152 to 153 °C; to `NC(=O)n1c(S(=O)Cc2ccccn2)nc2ccccc21` (centres undefined), 164 °C.
The compound `O=C(C=Cc1ccc(Cl)cc1)NC1CCCNC(=O)C1` (centres undefined) yielded a melting point of 256 to 257 °C.
For `CC(C)CC(CS)C(=O)N[C@H]1Cc2cn(c3ccccc23)CCCCCCNC1=O` (some centres undefined), the melting point was determined as 224 °C.
On to `CCCCCCCCCCCCCCCCOC(=O)CCCCCCCCCCCCC`, for which the melting point was 54 to 56 °C.
Compound `CCCc1c(OCCCCCC(=O)c2ccc(OC)c(OC)c2)ccc(C(=O)OC)c1O` displayed a melting point of 117 to 119 °C.
To `CC1(C)Cc2cc(OCC(N)=O)c3c(c2C(c2ccccc2)=N1)CC(C)(C)O3` belongs 117 to 119 °C; to `c1cc2c3c(c1)C1CCCCCCC1N3CCNC2` (centres undefined), 58 to 63 °C; to `O=c1cc(-c2ccc(O)cc2)oc2c([N+](=O)[O-])cccc12`, 299 to 301 °C.
Compound `COc1cc2cc3c(Nc4ccc(Sc5nccn5C)c(Cl)c4)c(C#N)cnc3cc2cc1OCCN1CCN(C)CC1` displayed a melting point of 184 to 186 °C.
`CCOC(=O)CC(C)(O)c1ccc(C2CCCCC2)cc1` (centres undefined) yielded a melting point of 45 °C.
For `NC1=NC2=NN(c3ccco3)NC2=C2N=CN(Cc3ccc(F)cc3)N12`, the melting point is 266 to 268 °C.
In the case of `O=C1Nc2ccc(Br)cc2C12OCCCO2`, the melting point lay within 166 to 168 °C.
In the case of `CC1(C)OCCC2CC(=O)N21` (centres undefined), the melting point lay in the range of 60 to 61 °C.
For `CN(SC1(C)CCCC1=O)C(=O)ON=C1SC(C)(C)C(=O)N1C` (centres undefined), the melting point fell in the range of 119 to 121 °C.
As to `CC(=O)SCC(Cc1ccccc1)NC(=O)N1CCN(C)CC1` (single isomer, unassigned; (+)), the melting point was found to be 78 °C.
As to `O=C(NCCN(C1CC1)S(=O)(=O)c1ccccc1[N+](=O)[O-])N1CCN2C(=O)OC(c3ccccc3)(c3ccccc3)C2C1` (centres undefined), the melting point lay in the range of 136 to 138 °C.
As to `O=c1cc(-c2ccc3nccnc3c2)oc2ncccc12`, the melting point is 272 to 275 °C.
To `C=C1C(=O)OC2C1CCC(C)=CCCC1(C)OC21` (centres undefined) belongs 112 to 113 °C.
`COc1ccc(-c2nn(Cc3ccc(Cl)cc3)c(=O)cc2-c2ccncc2)cc1` had a melting point of 175 to 176 °C.
The compound `Cc1nc(C)c(C(=O)Nc2cccc3c2C(C)CC3(C)C)s1` (centres undefined) gave a melting point of 117 to 118 °C.
Compound `O=C1C[C@@H]2[C@@H](/C=C/C(=O)[C@@H]3OCc4ccccc4O3)[C@H](OC(=O)c3ccccc3)C[C@@H]2O1` yielded a melting point of 129 to 130 °C.
In turn, `Cc1cc(F)ccc1-c1nc(N[C@@H](C)CO)nc2c1ccc(=O)n2-c1ccccc1F` came in with a melting point of 114 to 120 °C.
To `O=C(O)CCCCNS(=O)(=O)c1ccc(N2CCCCC2)cc1` belongs 115 to 120 °C; to `CNc1cc(Oc2ccc3c(c2)OCCN3)ncn1`, 153 °C; to `COC(=O)C1=Cc2ccccc2OC1`, 56 to 57 °C.
Compound `CCOC(=O)c1cc2c(C(=O)CN(Cc3ccccc3)C(C)CC(=O)OC)ccc(OCc3ccccc3)c2[nH]1` (centres undefined) returned a melting point of 120 to 123 °C.
To `CCCCn1c(=O)n(CCC)c(=O)c2c(N)n(CCCl)nc21` belongs 118 to 121 °C; to `CCOC(=O)CC(=O)c1ccc(CCNC(C)=O)cc1`, 89 to 92 °C; to `CCOC(=O)C(=O)Nc1ccc2c(c1)-c1c(c(C(=O)C(C#N)C(=O)Nc3ccccc3)nn1-c1ccccc1)CS2` (centres undefined), 273 to 277 °C.
To `COC12CC(CO)CN(C)C1CC1CNc3cccc2c31` (centres undefined) belongs 134 to 138 °C; to `O=c1[nH]c2cc(Br)sc2[nH]c1=O`, over 300 °C; to `COC(=O)C1=CC(C(=O)c2cc(C)ccc2O)=CN2CCc3c([nH]c4ccccc34)C12C(=O)OC` (centres undefined), 197 °C.
`CC(c1cccc(-c2c[nH]nn2)c1)C(O)(Cn1cncn1)c1ccc(F)cc1F` (centres undefined): the melting point is 168 to 170 °C.
Take `CC(=O)Oc1cc(C(C)=O)c(O)cc1NS(C)(=O)=O`: the melting point was 205 to 206 °C.
`COc1ccc2c(c1)Sc1ccc(Cl)cc1C(O)C2` (centres undefined) returned a melting point of 100 to 102 °C.
To `NC1c2ccccc2CC12C(=O)Nc1ccccc12` (centres undefined) belongs 195 to 197 °C.
As for `OCCCCc1ccc(N2CCOCC2)cc1`, the melting point was in the range of 51 to 52 °C.
The compound `CN(C)CC1Cc2ccccc2N(S(=O)(=O)CCc2ccc(-c3ccccc3)cc2)C1` (centres undefined) returned a melting point of 108 to 109 °C.
Take `O=C(Nc1c[nH]nc1C(=O)NCCCc1ccccc1)c1ccccn1`: the melting point was 179 to 180 °C.
As for `CCOC(=O)c1cn(C2CC2)c2c(F)c(C)c(F)cc2c1=O`, the melting point fell in the range of 177 to 179 °C.
The compound `O=C(Nc1cn(C2CCCCO2)nc1C(=O)NCCCOc1ccccc1)c1ccccn1` (centres undefined) had a melting point of 106 to 107 °C.
The compound `CN(c1cccc2cc(C3=NCC(C(N)=O)S3)[nH]c12)S(=O)(=O)c1cccs1` (centres undefined) yielded a melting point of 230 to 232 °C.
To `CC(C)(OCc1nn(Cc2ccccc2)c2ccc([N+](=O)[O-])cc12)C(=O)O` belongs 129 to 131 °C.
